Experimental data published in publication PMC2873968, “Novel protein kinase D inhibitors cause potent arrest in prostate cancer cell growth and motility” (BMC Chemical Biology, 2010).

Experiments:
PKCβI = biological target: T1, PKCβI (Homo sapiens, UniProt P05771); set-up: method as in PMID 18829454; conditions: previously reported; cited from earlier work
T1 construct: purchased Cell Signaling Technology

CAMKIIα [1] = biological target: T2, CAMKIIα (Homo sapiens, UniProt Q9UQM7); set-up: method as in PMID 18829454; conditions: previously reported; cited from earlier work
T2 construct: purchased Enzo Life Sciences

PC3 cells = tested on: PC3 cells; set-up: method as in PMID 18829454; conditions: 10 or 25 μM for six days; cited from earlier work
CAK = tested on: CAK; set-up: method as in PMID 18829454; conditions: previously reported; cited from earlier work
[2] = tested on: protein kinase B (AKT/PKB); set-up: method as in PMID 18829454; conditions: previously reported; cited from earlier work
ABL = ABL (Homo sapiens, UniProt P00519); assay: Kinase profiling, single-dose in vitro kinase assay (Caliper Life Sciences); conditions: read-out: Average % Inhibition ABL
AKT2 = AKT2 (Homo sapiens, UniProt P31751); assay: as above; conditions: read-out: Average % Inhibition AKT2
AMPK = assay: as above; conditions: 10 μM
CHK1 = CHK1 (Homo sapiens, UniProt O14757); assay: as above; conditions: read-out: Average % Inhibition CHK1
ErbB4 = ErbB4 (Homo sapiens, UniProt Q15303); assay: as above; conditions: read-out: Average % Inhibition ErbB4
Erk2 = Erk2 (Homo sapiens, UniProt P28482); assay: as above; conditions: read-out: Average % Inhibition Erk2
FGFR1 = FGFR1 (Homo sapiens, UniProt P11362); assay: as above; conditions: read-out: Average % Inhibition FGFR1
FLT3 = FLT3 (Homo sapiens, UniProt P36888); assay: as above; conditions: read-out: Average % Inhibition FLT3
IBSR = IBSR (Homo sapiens, UniProt P06213); assay: as above; conditions: read-out: Average % Inhibition IBSR
JNK2 = JNK2 (Homo sapiens, UniProt P45984); assay: as above; conditions: read-out: Average % Inhibition JNK2
KDR = KDR (Homo sapiens, UniProt P35968); assay: as above; conditions: read-out: Average % Inhibition KDR
MSK1 = MSK1 (Homo sapiens, UniProt O75582); assay: as above; conditions: read-out: Average % Inhibition MSK1
p38a = p38a (Homo sapiens, UniProt Q16539); assay: as above; conditions: read-out: Average % Inhibition p38a
PAK2 = PAK2 (Homo sapiens, UniProt Q13177); assay: as above; conditions: read-out: Average % Inhibition PAK2
PDK1 = PDK1 (Homo sapiens, UniProt O15530); assay: as above; conditions: read-out: Average % Inhibition PDK1
PKCη = PKCη (Homo sapiens, UniProt P24723); assay: as above; conditions: read-out: Average % Inhibition PKCη
PKCθ = PKCθ (Homo sapiens, UniProt Q04759); assay: as above; conditions: read-out: Average % Inhibition PKCθ
RSK1 = RSK1 (Homo sapiens, UniProt Q15418); assay: as above; conditions: read-out: Average % Inhibition RSK1
CAMKIIα [3] = biological target: T2, CAMKIIα; assay: In vitro radiometric CAMK kinase assay; type: biochemical
Experimental: In vitro radiometric kinase assays were conducted as previously described. Briefly, 1 μCi [γ-^32P] ATP (PerkinElmer Life Sciences), 70 μM ATP, 50 ng purified recombinant human PKD1 (Biomol International, Plymouth Meeting, PA), PKD2 (SignalChem, Richmond, BC, Canada), or CAMKIIα (Enzo Life Sciences) or 75 ng PKD3 (Enzo Life Sciences), and 2.5 μg syntide-2 (Sigma) in 50 μl kinase buffer containing 50 mM Tris-HCl, pH 7.5, 4 mM MgCl2, and 10 mM β-mercaptoethanol. For the CAMK assay, 0.5 mM CaCl2 and 30 ng/μl calmodulin were pre-incubated for 10 min on ice, and then added to each reaction mixture. The reaction was incubated at 30°C for 10 min, and 25 μl of the reaction mixture was then spotted onto Whatman P81 filter paper (Whatman Inc., Clifton, NJ). The filter papers were washed 3 times in 0.5% phosphoric acid, air-dried, and counted using a Beckman LS6500 multipurpose scintillation counter (Beckman).
To determine whether the novel analogs retained this specificity, we tested the compounds against their ability to inhibit PKCα, -βI, -δ, and CAMKIIα in in vitro radiometric kinase activity assays.
Inhibition of PKCα (A), PKCβI (B), PKCδ (C), or CAMKIIα (D) by each of the 5 analogs was determined at 100 nM, 1 μM, and 10 μM concentrations. […] Statistical significance was determined using the unpaired t-test. ns, not statistically significant; *, p < 0.05; **, p < 0.01; ***, p < 0.001.

Chain of FGFR1 (P11362 22-822): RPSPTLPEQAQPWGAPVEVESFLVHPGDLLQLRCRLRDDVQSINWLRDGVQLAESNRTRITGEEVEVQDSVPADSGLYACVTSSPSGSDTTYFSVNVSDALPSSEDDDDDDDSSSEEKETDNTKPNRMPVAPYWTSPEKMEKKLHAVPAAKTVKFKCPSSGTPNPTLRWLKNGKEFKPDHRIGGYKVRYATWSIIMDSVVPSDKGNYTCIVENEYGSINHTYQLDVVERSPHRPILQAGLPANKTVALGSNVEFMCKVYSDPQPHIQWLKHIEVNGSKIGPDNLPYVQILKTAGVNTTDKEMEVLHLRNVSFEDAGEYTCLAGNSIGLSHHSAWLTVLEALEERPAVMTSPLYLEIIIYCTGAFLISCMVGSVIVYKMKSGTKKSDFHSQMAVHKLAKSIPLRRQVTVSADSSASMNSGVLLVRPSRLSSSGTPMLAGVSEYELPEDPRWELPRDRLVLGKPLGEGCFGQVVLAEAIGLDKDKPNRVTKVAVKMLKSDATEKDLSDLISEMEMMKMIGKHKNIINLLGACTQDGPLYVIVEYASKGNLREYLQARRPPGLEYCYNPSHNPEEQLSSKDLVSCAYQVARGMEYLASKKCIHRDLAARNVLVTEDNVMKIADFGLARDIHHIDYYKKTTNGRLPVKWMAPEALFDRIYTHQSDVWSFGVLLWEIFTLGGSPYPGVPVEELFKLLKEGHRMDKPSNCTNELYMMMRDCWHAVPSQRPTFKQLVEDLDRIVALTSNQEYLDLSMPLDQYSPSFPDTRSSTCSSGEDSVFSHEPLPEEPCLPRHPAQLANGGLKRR
Chain of PAK2 (Q13177 whole entry): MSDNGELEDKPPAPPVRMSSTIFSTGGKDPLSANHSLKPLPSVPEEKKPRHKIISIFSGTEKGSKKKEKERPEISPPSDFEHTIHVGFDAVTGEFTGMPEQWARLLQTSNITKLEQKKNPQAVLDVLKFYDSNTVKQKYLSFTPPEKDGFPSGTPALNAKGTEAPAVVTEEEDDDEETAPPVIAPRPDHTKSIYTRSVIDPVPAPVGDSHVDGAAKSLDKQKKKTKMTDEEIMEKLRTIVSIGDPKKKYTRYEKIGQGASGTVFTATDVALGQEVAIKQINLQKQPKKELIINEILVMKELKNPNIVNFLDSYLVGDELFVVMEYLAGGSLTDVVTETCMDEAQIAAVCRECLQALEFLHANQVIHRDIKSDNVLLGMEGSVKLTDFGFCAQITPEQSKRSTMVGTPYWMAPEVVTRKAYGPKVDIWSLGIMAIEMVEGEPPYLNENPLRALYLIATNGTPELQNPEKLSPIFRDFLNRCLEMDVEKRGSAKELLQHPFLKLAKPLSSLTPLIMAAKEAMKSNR
T1 sequence (P05771 whole entry): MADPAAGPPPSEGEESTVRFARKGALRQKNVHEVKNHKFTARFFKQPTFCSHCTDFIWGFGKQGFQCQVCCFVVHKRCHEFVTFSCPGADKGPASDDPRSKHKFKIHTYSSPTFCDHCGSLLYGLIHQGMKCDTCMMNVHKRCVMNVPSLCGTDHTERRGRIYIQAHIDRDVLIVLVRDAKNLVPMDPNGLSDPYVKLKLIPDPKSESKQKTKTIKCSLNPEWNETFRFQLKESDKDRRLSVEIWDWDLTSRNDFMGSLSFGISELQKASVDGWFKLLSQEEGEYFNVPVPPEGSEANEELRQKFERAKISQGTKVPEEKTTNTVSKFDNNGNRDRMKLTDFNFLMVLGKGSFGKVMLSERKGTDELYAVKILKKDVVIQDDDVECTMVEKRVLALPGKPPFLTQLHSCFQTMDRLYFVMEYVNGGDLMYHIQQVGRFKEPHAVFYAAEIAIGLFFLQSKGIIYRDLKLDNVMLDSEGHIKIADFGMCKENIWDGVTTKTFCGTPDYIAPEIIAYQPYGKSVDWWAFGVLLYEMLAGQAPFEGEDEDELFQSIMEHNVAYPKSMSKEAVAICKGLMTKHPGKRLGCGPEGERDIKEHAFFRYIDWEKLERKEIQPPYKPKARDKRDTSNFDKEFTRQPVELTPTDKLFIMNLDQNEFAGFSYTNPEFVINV
Chain of KDR (P35968 20-1356): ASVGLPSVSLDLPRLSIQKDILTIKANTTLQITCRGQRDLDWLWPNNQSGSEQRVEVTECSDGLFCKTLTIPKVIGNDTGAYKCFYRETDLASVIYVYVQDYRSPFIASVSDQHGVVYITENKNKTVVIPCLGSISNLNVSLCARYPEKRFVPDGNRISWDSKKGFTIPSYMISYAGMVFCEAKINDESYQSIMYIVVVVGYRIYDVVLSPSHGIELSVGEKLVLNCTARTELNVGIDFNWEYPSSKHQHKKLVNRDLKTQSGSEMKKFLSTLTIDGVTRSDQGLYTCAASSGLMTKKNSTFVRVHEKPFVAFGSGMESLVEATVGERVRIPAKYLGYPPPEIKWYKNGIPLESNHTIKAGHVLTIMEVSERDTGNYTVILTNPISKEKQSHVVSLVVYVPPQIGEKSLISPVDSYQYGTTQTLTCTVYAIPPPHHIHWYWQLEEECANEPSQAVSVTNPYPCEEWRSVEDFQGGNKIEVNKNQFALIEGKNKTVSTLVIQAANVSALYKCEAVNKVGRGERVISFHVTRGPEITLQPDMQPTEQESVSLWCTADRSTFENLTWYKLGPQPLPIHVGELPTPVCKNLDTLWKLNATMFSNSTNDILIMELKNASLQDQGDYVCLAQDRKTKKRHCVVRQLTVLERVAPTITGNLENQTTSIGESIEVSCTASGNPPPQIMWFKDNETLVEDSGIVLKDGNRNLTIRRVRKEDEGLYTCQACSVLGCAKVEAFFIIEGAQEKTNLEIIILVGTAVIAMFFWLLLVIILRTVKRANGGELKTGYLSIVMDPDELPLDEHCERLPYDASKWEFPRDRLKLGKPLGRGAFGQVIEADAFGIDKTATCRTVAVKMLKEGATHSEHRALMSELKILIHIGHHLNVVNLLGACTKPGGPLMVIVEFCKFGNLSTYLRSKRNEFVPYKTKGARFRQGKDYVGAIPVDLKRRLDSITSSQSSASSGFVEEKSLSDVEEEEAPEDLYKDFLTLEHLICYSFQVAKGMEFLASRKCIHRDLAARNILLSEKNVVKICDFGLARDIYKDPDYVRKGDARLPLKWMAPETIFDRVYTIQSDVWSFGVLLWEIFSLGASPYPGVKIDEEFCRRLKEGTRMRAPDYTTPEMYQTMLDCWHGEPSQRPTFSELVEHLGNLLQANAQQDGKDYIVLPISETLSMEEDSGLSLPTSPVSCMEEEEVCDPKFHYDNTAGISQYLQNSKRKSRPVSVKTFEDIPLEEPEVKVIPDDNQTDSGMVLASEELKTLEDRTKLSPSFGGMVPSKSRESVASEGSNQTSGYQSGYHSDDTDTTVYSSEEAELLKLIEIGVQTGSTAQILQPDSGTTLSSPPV
Chain of ABL (P00519 whole entry): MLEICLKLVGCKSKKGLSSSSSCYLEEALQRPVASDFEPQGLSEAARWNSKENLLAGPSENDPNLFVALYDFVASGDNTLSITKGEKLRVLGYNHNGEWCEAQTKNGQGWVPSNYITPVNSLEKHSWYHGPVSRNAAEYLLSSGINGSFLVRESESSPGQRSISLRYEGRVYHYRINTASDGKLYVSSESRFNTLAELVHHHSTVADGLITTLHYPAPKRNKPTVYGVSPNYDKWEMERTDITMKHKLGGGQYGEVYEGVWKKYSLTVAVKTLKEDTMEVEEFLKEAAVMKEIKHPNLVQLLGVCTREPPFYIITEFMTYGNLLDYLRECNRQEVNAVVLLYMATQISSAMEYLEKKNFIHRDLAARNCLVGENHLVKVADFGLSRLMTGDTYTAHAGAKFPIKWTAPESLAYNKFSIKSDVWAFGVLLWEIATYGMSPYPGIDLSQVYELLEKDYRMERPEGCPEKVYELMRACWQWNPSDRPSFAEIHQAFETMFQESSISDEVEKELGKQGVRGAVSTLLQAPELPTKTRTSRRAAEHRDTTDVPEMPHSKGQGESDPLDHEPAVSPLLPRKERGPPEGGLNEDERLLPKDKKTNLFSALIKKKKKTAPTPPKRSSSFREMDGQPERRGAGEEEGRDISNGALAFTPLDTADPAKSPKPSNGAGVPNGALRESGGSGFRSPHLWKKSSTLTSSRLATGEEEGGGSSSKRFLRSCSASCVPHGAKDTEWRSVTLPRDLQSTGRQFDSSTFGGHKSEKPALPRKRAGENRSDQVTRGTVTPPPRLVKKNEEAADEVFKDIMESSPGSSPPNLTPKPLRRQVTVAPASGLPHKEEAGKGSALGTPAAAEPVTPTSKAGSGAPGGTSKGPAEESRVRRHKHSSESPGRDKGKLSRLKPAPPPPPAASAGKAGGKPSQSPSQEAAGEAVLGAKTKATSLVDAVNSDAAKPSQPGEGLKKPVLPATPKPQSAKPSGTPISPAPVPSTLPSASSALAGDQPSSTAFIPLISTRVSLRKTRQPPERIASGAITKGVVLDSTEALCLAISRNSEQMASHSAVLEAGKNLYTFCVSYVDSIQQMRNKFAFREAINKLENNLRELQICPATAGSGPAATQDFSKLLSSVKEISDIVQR
Chain of Erk2 (P28482 whole entry): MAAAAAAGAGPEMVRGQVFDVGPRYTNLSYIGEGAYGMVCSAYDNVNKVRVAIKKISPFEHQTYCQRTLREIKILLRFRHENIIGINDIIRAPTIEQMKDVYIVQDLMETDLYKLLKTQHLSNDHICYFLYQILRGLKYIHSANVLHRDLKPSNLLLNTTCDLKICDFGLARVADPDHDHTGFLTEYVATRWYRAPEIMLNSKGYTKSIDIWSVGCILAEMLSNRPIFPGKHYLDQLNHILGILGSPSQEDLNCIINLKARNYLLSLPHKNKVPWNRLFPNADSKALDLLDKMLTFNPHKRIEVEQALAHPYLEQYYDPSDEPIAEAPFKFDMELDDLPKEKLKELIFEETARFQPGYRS

Question: For `O=C1NCCCc2c1oc1ccc(O)cc21` [CID755673, 7-Hydroxy-2,3,4,5-tetrahydro-[1]benzoxolo[2,3-c]azepin-1-one], which “inhibition of PKCβI” value (PKCβI) is on record?
Answer: did not inhibit

Question: And the “inhibition of CAMKIIα” value (CAMKIIα [1])?
Answer: did not inhibit

Question: And the cell cycle arrest (PC3 cells)?
Answer: caused G2/M phase cell cycle arrest

Question: And the “inhibition of CAK” value (CAK)?
Answer: did not inhibit

Question: And the “inhibition of protein kinase B (AKT/PKB)” value [2]?
Answer: did not inhibit

Question: What about the inhibition at 10 µM (ABL) of the same compound?
Answer: 8%

Question: What about the inhibition at 10 µM (AKT2) of the same compound?
Answer: 4%

Question: And the “Average % Inhibition AMPK” value (AMPK)?
Answer: 35%

Question: What about the inhibition at 10 µM (CHK1) of the same compound?
Answer: 7%

Question: What about the inhibition at 10 µM (ErbB4) of the same compound?
Answer: 1%

Question: What about the inhibition at 10 µM (Erk2) of the same compound?
Answer: 31%

Question: And the inhibition at 10 µM (FGFR1)?
Answer: 16%

Question: And the inhibition at 10 µM (FLT3)?
Answer: 14%

Question: What about the inhibition at 10 µM (IBSR) of the same compound?
Answer: 3%

Question: And the inhibition at 10 µM (JNK2)?
Answer: 36%

Question: And the inhibition at 10 µM (KDR)?
Answer: 8%

Question: And the inhibition at 10 µM (MSK1)?
Answer: 7%

Question: What about the inhibition at 10 µM (p38a) of the same compound?
Answer: 2%

Question: What about the inhibition at 10 µM (PAK2) of the same compound?
Answer: 3%

Question: What about the inhibition at 10 µM (PDK1) of the same compound?
Answer: 22%

Question: What about the inhibition at 10 µM (PKCη) of the same compound?
Answer: 40%

Question: What about the inhibition at 10 µM (PKCθ) of the same compound?
Answer: 32%

Question: What about the inhibition at 10 µM (RSK1) of the same compound?
Answer: 29%

Question: For `O=C1NCCSc2c1sc1ccc(O)c(I)c21` [kb-NB165-31], which “inhibition of CAMKIIα (in words)” value (CAMKIIα [3]) is on record?
Answer: significant inhibitory activity

Question: And the inhibition at 10 µM (CAMKIIα [3]; 10 μM)?
Answer: ~70%
